Data reported in patent US20230285357A1, “COMPOSITIONS AND METHODS FOR […] CELLS” (The Regents of the University of California, priority 2020, published 2023).

Key:
SMAD1 and β-catenin = test: Immunoblotting of SMAD1, phosphorylated SMAD1 and β-catenin in treated osteoblasts; type: cell-based, mouse; conditions: different doses
Description: (§1) The expression of transcription factors that are known to be involved in bone formation or vascular development were screened. […] To determine if excess β-catenin affected SMAD1 expression, β-catenin in SB216763-treated osteoblasts was depleted by using siRNA. […] DNA-binding sites of β-catenin by locating the binding motifs in Smad1 gene was explored, and identified four individual sites located at −196 bp, −1454 bp, −2805 bp and −4729 bp upstream of exon1 of Smad1 gene (FIG. 3, Part D). […] Then, transcriptional status of Smad1 was determined by examining the histone modification, including trimethylated histone H3 lysine 4 (H3K4me3) associated with active transcription and H3K27me3 a closed chromatin mark.
Immunoblotting was performed as previously described. Equal amounts of tissue lysates were used for immunoblotting. Blots were incubated with specific antibodies to SMAD1, GSK3α and GSK3β (all from Cell Signaling Technology, 9743, 433T and 93115), β-catenin and cbfa1 (all from R&D system, AF1329 and MAB2006), osterix (Santa Cruz Biotechnology, sc-22536), Flk1 and VE-cadherin (all from BD Bioscience, 55307 and 562242), vWF (Dako, A0082). 3-Actin (Sigma-Aldrich, A2228) was used as a loading control. Immunofluorescence was performed as previously described in detail. […]

[1] = tested on: vascular calcification in Mgp−/− mice; test: Late vascular calcification in Mgp−/− mice; type: in vivo, mouse
Procedure: It was next examined if SB216763 reversed osteogenesis in vascular calcification by treating Mgp^−/− mice at 4 weeks of age for 2 weeks (FIG. 5, Part F).
Mgp^+/− (B6.129S7-Mgptm1Kry/KbosJ), Col1α1^CreERT2 (B6.Cg-Tg(Col1α1-cre/ERT2)1Crm/J), GSK3β^flox/flox (B6.129(Cg)-Gsk3btm2Jrw/J) and Osx-Gfptg (B6.Cg-Tg(Sp7-tTA,tetO-EGFP/cre)1Amc/J) mice on C57BL/6J background were purchased from the Jackson Laboratory. Genotypes were confirmed by PCR, and experiments were performed with generation F4-F6. Littermates were used as wild type controls. All mice were fed a standard chow diet. The studies were reviewed and approved by the Institutional Review Board and conducted in accordance with the animal care guidelines set by the University of California, Los Angeles (UCLA). The investigation conformed to the National Research Council, Guide for the Care and Use of Laboratory Animals, Eighth Edition (Washington, D.C.: The National Academies Press, 2011).
(§2) MicroCT imaging was performed at the Crump Imaging Center at UCLA. All the samples were scanned on a high-resolution, volumetric microCT scanner (CT125). The image data were acquired with the following parameters: 10 μm isotropic voxel resolution; 200 ms exposure time; 2,000 views and 5 frames per view. The microCT-generated DICOM files were used to analyze the samples and to create volume renderings of the regions of interest. The raw data files were viewed using the MicroView 3-D volume viewer and analysis tool (GE Healthcare) and AltaViewer™ Software. Additionally, images of the samples were generated using SCIRun (Scientific Computing and Imaging Institute).

osteoblasts = test: RNA sequencing of SB216763-treated osteoblasts; type: cell-based, mouse
Description: The differential expression profiles of SB216763-treated osteoblasts using RNA sequencing was examined. […] These overlapped with 1357 genes identified as low expression when osteoblast vs EC was compared, and a 307-gene cohort with decreased expression in both analyses was identified (FIG. 1, Part G). Gene Ontology (GO) termed these genes enriched for the signal pathway of osteoblastic differentiation and bone development (FIG. 1, Part G). Similarly, 519 genes with increased expression after SB21673 treatment were found (FIG. 1, Part H).
For RNA sequencing, osteoblasts were treated with 10 μM SB216763 for 14 days, and RNA was isolated for library preparation. The sequencing was conducted by the Pathology Research Services at UCLA. Spliced Transcripts Alignment to Reference (STAR) was used for the read alignment. Cufflinks was used to assemble transcripts, estimate their abundances, and assess the differential expression. GO analysis and pathway enrichment of the identified genes were performed.

[2] = tested on: promoter region of Smad1 gene; test: ChIP assay of β-catenin DNA-binding and histone modification in promoter of Smad1 gene; type: cell-based, mouse
Description: as §1
βChIP assays were performed as previously described. Specific antibodies for β-catenin were used (R&D System, MAB2006), H3k4me3 (Abcam, ab8580) and H3k27me3 (Abcam, ab6002). The primers for the real-time PCR: 5′GAAAATAACACAGGCTTTG3′ (SEQ ID NO: 13) and 5′ GCTCCCCGAGCCTGGATT 3′ (SEQ ID NO: 14); 5′ GGACAGAGGCTCTCATTCC 3′ (SEQ ID NO: 15) and 5′[…]3′ (SEQ ID NO: 16) and 5′[…]3′ (SEQ ID NO: 17) 5′[…]3′ (SEQ ID NO: 18); 5′[…]3′ (SEQ ID NO: 19) and 5′[…]3′ (SEQ ID NO: 20).

[3] = tested on: bone tissue of wild type mice; test: Effect of long treatment on bone formation in wild type mice; type: in vivo, mouse; conditions: wild type mice at 8 weeks of age, 5 ug/g daily for 8 weeks
Procedure: To determine if long-treatment of SB216763 has any effects on bone formation, wild type mice were treated at 8 weeks of age with SB216763 (5 ug/g daily) for 8 weeks. After treatment, the bone tissue was examined by micro-CT imaging and immunostaining.
as §2

[4] = Mgp−/− mice at 4 weeks of age treated for 2 weeks
[5] = 4-fold differential threshold level

With Cn1cc(C2=C(c3ccc(Cl)cc3Cl)C(=O)NC2=O)c2ccccc21 [SB216763] the “expression and phosphorylation of SMAD1” value (SMAD1 and β-catenin) was “dose-dependent decrease”, the β-catenin protein level (SMAD1 and β-catenin) was “robust increase” and the “CD31-positive cells co-expressing VE-cadherin and osterix, FACS” value [1, 4] was “decrease of CD31-positive cells that co-expressed VE-cadherin and osterix”. The “CD31-positive cells expressing VE-cadherin only, FACS” value [1, 4] was “increase of CD31-positive cells that expressed VE-cadherin only”, the “aortic calcification, microCT imaging” value [1, 4] was “reduction of aortic calcification” and the “histology of calcified areas of the aortas” value [1, 4] was “change in morphology in calcified areas of the aortas”. For the same compound, the “mineralization of whole aortic tissues, alizarin red staining” value [1, 4] was “reduction of mineralization”, the “total aortic calcium and mineral deposition” value [1, 4] was “decrease of total aortic calcium and mineral deposition” and the “osteogenic markers in aortic tissue, real-time PCR” value ([1]; treated Mgp−/− mice compared to non-treated mice) was “decrease of osteogenic markers”. For the same compound, the transcript profile (osteoblasts; 10 μM for 14 days) was “increased the similarities between the treated osteoblasts and ECs”, the “cohort with decreased expression in both analyses (overlap with osteoblast vs EC low expression genes)” value (osteoblasts; [5]) was 307 gene and the “cohort with increased expression in both analyses (overlap with EC vs osteoblast high expression genes)” value (osteoblasts; [5]) was 235 genes. For the same compound, the “genes decreased in expression” value (osteoblasts; [5]) was 827 genes, the “genes with increased expression” value (osteoblasts; [5]) was 519 genes and the “histone modification H3K4me3 and H3K27me3 around β-catenin binding sites in Smad1 promoter” value ([2]; treated osteoblasts) was “lower abundance of H3K4me3 with higher abundance H3K27me3”. The “β-catenin abundance around binding sites upstream of exon1 of Smad1 gene” value ([2]; treated osteoblasts vs non-treated controls) was “more abundance of β-catenin”, the “hemorrhage in the bone tissue” value [3] was “had not detected any hemorrhage” and the “microstructure of bone tissues and vasculature, immunostaining of CD31 and osterix” value [3] was “no changes in the microstructure of bone tissues and vasculature”. For the same compound, the “relative bone volumes and connectivity densities, micro-CT” value ([3]; treated vs non-treated) was “no differences”.
